Consider 5 compounds from publication PMC6372667 (Experimental & Molecular Medicine, 2019).

Series [1] concerns AChE. To be noted: cited from earlier work.
On the set-up of series [2]: method as in PMID 23565574. Conditions: PAMPA-BBB ref 49; cited from earlier work. (In PAMPA a lipid-coated filter parts donor from acceptor wells.)
Series [3] has as its system BChE. On the set-up: method as in PMID 18274286. To be noted: cited from earlier work.
Series [4] has as its system aged triple transgenic mouse models of AD (3xTg-AD). Conditions: 25 mg/kg i.p. every 48 h for 3 months, mice 21–24 months old ref 48; cited from earlier work.
The target in series [5] is T1, Electric eel AChE (Electrophorus electricus, UniProt O42275).
T1 construct: purchased Sigma-Aldrich Co
As to the kind of experiment: In vitro cholinesterase enzyme assay (Ellman), AChE. The class given is biochemical. The source says: BACE1 (human recombinant β-secretase) ([…]) and the BACE1 FRET (fluorescence resonance energy transfer) assay kit Red were purchased from ThermoFisher Scientific (P2985; Waltham, MA, USA). […] For the cell culture experiment, Dulbecco’s modified Eagle’s medium (DMEM), Opti-MEM, fetal bovine serum (FBS), and penicillin/streptomycin were obtained from Capricorn Scientific (Ebsdorfergrund, Germany). β-secretase inhibitor III (β-SI) was purchased from Calbiochem (Darmstadt, Germany). The protease inhibitor mixture (a mixture of AEBSF, pepstatin A, E-64, bestain, leupeptin, and aprotinin) was purchased from Sigma-Aldrich (St. Louis, MO, USA). Enzyme-linked immunosorbent assay (ELISA) kits for Aβ40 and Aβ42 were obtained from IBL (Kunma, Japan). All chemicals and solvents used were reagent grade, purchased from commercial sources, and used as received.
The inhibitory activities of pterosin derivatives against cholinesterases were measured using the method developed by Ellman et al.[32]. The reaction mixture contained 140 μL of sodium phosphate buffer (pH 8.0), 20 μL of test sample solution (final concentration of the compound 100 μM), and 20 μL of AChE or BChE solution, mixed and incubated for 15 min at room temperature. […] The reactions were initiated following the addition of 10 μL of DTNB and 10 μL of acetyl thiocholine iodide for the AChE assay or butyryl thiocholine chloride for the BChE assay in 96-well microplates, which were incubated for 15 min.
In general terms: DTNB colorimetry detects thiols as they appear.

Series [6] has as its system dementia animal models. To be noted: 5 mg/kg i.p. ref 53; cited from earlier work.
Series [7] has as its system BACE1. Conditions: cited from earlier work.
Series [8] is described as follows: PAMPA-BBB, literature. The class given is in vitro ADME. Conditions: from log BB = 0.612 × log Pe + 3.206 (ref 49).
The conditions of series [9]: pharmacokinetic descriptor of the brain ref 53; cited from earlier work.
Series [10] deals with mouse models of diabetes. Also on record: method as in PMID 23069626. Conditions: cited from earlier work.
The test system of series [11] is mouse model of osteoarthritis. On the set-up: method as in PMID 27009967. To be noted: 15 μL of 900 μM intra-articular, three times per week, 8–13 weeks ref 28; cited from earlier work.
Setting [12] is: oral 100 mg/kg/day for 4 weeks ref 29, 30.

T1 sequence (O42275 24-633): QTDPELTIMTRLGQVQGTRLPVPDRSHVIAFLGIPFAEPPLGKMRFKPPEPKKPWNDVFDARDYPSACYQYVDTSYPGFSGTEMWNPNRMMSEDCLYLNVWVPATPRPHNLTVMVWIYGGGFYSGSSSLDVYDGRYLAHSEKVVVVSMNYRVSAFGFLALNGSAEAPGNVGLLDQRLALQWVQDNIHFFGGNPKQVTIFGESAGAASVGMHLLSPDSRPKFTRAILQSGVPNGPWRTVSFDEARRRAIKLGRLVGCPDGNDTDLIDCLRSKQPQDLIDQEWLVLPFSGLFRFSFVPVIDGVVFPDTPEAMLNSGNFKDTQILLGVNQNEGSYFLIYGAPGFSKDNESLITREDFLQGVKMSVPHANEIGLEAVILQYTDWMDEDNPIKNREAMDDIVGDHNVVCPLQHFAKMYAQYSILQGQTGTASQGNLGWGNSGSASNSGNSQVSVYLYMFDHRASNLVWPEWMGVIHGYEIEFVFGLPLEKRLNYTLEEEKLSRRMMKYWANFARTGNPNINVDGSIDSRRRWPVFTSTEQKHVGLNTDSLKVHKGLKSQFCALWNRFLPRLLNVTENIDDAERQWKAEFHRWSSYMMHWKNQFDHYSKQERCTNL

As for `O=c1c(O)c(-c2ccc(O)c(O)c2)oc2cc(O)cc(O)c12` [Quercetin, quercetin], the IC50 in series [1] is […]. Also, the “log Pe” value in series [2] was “approximately −7”. In addition, the “Influence on BChE activity” value in series [3] is given as “negligible influence”. The “Effect on AD pathology” value in series [4] is “effectively ameliorated AD pathology and tauopathy”.

In series [5], `COc1ccc2cc3[n+](cc2c1OC)CCc1cc2c(cc1-3)OCO2` [Berberine, berberine] showed an IC50 of 390 ± 10 nM. Also, the Cognitive effect entry in series [6] was “procognitive and antiamnestic properties”. In addition, in [7], the BACE1-inhibitory activity result is given as “lacks”. For the same compound, in series [8], the “log Pe corresponding to log BB” value was −5.8. Moreover, in series [9], the “log BB” value is −0.35.

As for `Cc1cc2c(c(C)c1CCO)C(=O)C(C)(CO)C2` (stereo not drawn) [pterosin A], the Oral bioavailability result in series [10] (diabetes animal experiment ref 29, 30) was “good oral bioavailability”. Also, in series [10] (setting [12]), the Adverse effects result is “no significant adverse effects”; the “Effect on glucose intolerance and insulin resistance” value was “effectively improving glucose intolerance and insulin resistance”.

`Cc1cc2c(c(C)c1CCO)C(=O)[C@H](C)C2` [pterosin B]: in [11], the Adverse effects entry is recorded as “without adverse effects” and the Effect on osteoarthritis result is given as “ameliorating osteoarthritis”.

Take `CC#Cc1cncc(-c2ccc3c(c2)[C@@]2(N=C(C)C(N)=N2)[C@]2(CC[C@H](OC)CC2)C3)c1` [AZD3293]: the Ki in series [7] is 0.4 nM.

In general, IC50 refers to the concentration that gives 50% inhibition. As a reminder, the Ki is the dissociation constant of the complex between target and ligand, obtained from inhibition or displacement.
